Legend:
[1] = test system: Puccinia recondita f. Sp. Tritici; assay: Fungicidal activity against Puccinia recondita f. sp. tritici / wheat / leaf disc preventative (brown rust); format: in vivo; settings: foliar, 200 ppm in the applied formulation, wheat leaf segments, preventative, compared to untreated control leaf disks, read-out: disease control
How it was run: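 Percent disease control relative to untreated check segments is scored once disease develops, 7 to 9 days after application. Wheat cv. Kanzler segments receive compound spray (200 ppm in formulation) one day before spore inoculation, then sit at 19° C. and 75% rh under 12 h light/12 h dark.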

Phakopsora Pachyrhizi = assay: Fungicidal activity against Phakopsora pachyrhizi / soybean / leaf disc preventative (Asian soybean rust); format: in vivo; settings: foliar, 200 ppm in the applied formulation, soybean leaf disks, compared to untreated control leaf disks, read-out: disease control
How it was run: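 Scored 12 to 14 days post-application as percent control relative to untreated check discs, rust spores were sprayed under the disc one day after compound treatment. Incubation: 20°C, 75% rh, first 24–36 h in darkness, then 12 h daily light; discs kept on water agar.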

[2] = test system: Puccinia recondita f. Sp. Tritici; assay: Fungicidal activity against Puccinia recondita f. sp. tritici / wheat / leaf disc curative (brown rust); format: in vivo; settings: foliar, 24 h, 200 ppm in the applied formulation, wheat leaf segments, curative (applied 1 day after inoculation), compared to untreated control leaf disks, read-out: disease control
How it was run: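 Scoring is percent disease control relative to untreated segments, made 6 to 8 days after treatment. Wheat (cv. Kanzler) leaf segments received the formulated, water-diluted compound one day post-inoculation with spores, having been kept dark at 19° C and 75% RH, then incubated under 12 h light/12 h dark at the same temperature and humidity.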

[3] = test system: Glomerella lagenarium (Colletotrichum lagenarium); assay: Fungicidal activity against Glomerella lagenarium (Colletotrichum lagenarium) liquid culture / cucumber / preventative (anthracnose); format: cell-based; settings: Colletotrichum orbiculare; 20 ppm in the applied formulation; liquid culture (PDB), growth inhibition measured photometrically after 3 to 4 days; compared to untreated control; read-out: disease control
How it was run: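 Percent activity against the untreated check was derived from photometric growth measurements made 2 to 7 days after conidia in potato dextrose broth were combined with compound at 20 ppm. Cultures were kept dark at 24 °C and 96% humidity.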

CCON(Cc1ccc(-c2noc(C(F)(F)F)n2)cc1)C(=O)CCOC [Compound 1.618, N-ethoxy-3-methoxy-N-[[4-[5-(trifluoromethyl)-1,2,4-oxadiazol-3-yl]phenyl]methyl]-propanamide]
≥ 80%: pest or weed control at 200 ppm [1] | pest or weed control at 200 ppm (Phakopsora Pachyrhizi) | pest or weed control at 200 ppm [2] | inhibition of growth at 20 ppm [3]

CCON(Cc1ccc(-c2noc(C(F)(F)F)n2)cc1)C(=O)C1CC1C (stereo not shown) [Compound 1.620]
≥ 80%: pest or weed control at 200 ppm [1] | pest or weed control at 200 ppm (Phakopsora Pachyrhizi) | pest or weed control at 200 ppm [2] | inhibition of growth at 20 ppm [3]

CCON(Cc1ccc(-c2noc(C(F)(F)F)n2)cc1)C(=O)C1(C)CC1 [Compound 1.621, N-ethoxy-1-methyl-N-[[4-[5-(trifluoromethyl)-1,2,4-oxadiazol-3-yl]phenyl]methyl]-cyclopropane-carboxamide]
≥ 80%: pest or weed control at 200 ppm [1] | pest or weed control at 200 ppm (Phakopsora Pachyrhizi) | pest or weed control at 200 ppm [2] | inhibition of growth at 20 ppm [3]

CCON(Cc1ccc(-c2noc(C(F)(F)F)n2)cc1)C(=O)C(C)CC (stereo not shown) [Compound 1.622, N-ethoxy-2-methyl-N-[[4-[5-(trifluoromethyl)-1,2,4-oxadiazol-3-yl]phenyl]methyl]-butanamide]
≥ 80%: pest or weed control at 200 ppm [1] | pest or weed control at 200 ppm (Phakopsora Pachyrhizi) | pest or weed control at 200 ppm [2] | inhibition of growth at 20 ppm [3]

CCON(Cc1ccc(-c2noc(C(F)(F)F)n2)cc1)C(=O)C1(C)COC1 [Compound 1.623, N-ethoxy-3-methyl-N-[[4-[5-(trifluoromethyl)-1,2,4-oxadiazol-3-yl]phenyl]methyl]-oxetane-3-carboxamide]
≥ 80%: pest or weed control at 200 ppm [1] | pest or weed control at 200 ppm (Phakopsora Pachyrhizi) | pest or weed control at 200 ppm [2] | inhibition of growth at 20 ppm [3]

CCON(Cc1ccc(-c2noc(C(F)(F)F)n2)cc1)C(=O)C(CC)COC (stereo not shown) [Compound 1.624, N-ethoxy-2-(methoxymethyl)-N-[[4-[5-(trifluoromethyl)-1,2,4-oxadiazol-3-yl]phenyl]methyl]-butanamide]
≥ 80%: pest or weed control at 200 ppm [1] | pest or weed control at 200 ppm (Phakopsora Pachyrhizi) | pest or weed control at 200 ppm [2] | inhibition of growth at 20 ppm [3]

CCON(Cc1ccc(-c2noc(C(F)(F)F)n2)cc1)C(=O)CCCOC [Compound 1.625, N-ethoxy-4-methoxy-N-[[4-[5-(trifluoromethyl)-1,2,4-oxadiazol-3-yl]phenyl]methyl]-butanamide]
≥ 80%: pest or weed control at 200 ppm [1] | pest or weed control at 200 ppm (Phakopsora Pachyrhizi) | pest or weed control at 200 ppm [2] | inhibition of growth at 20 ppm [3]

CCON(Cc1ccc(-c2noc(C(F)(F)F)n2)cc1)C(=O)C1CCCO1 (stereo not shown) [Compound 1.626, N-ethoxy-N-[[4-[5-(trifluoromethyl)-1,2,4-oxadiazol-3-yl]phenyl]methyl]-tetrahydrofuran-2-carboxamide]
≥ 80%: pest or weed control at 200 ppm [1] | pest or weed control at 200 ppm (Phakopsora Pachyrhizi) | pest or weed control at 200 ppm [2] | inhibition of growth at 20 ppm [3]

CCON(Cc1ccc(-c2noc(C(F)(F)F)n2)cc1)C(=O)C(C)OC (stereo not shown) [Compound 1.629, N-ethoxy-2-methoxy-N-[[4-[5-(trifluoromethyl)-1,2,4-oxadiazol-3-yl]phenyl]methyl]-propanamide]
≥ 80%: pest or weed control at 200 ppm [1] | pest or weed control at 200 ppm (Phakopsora Pachyrhizi) | pest or weed control at 200 ppm [2] | inhibition of growth at 20 ppm [3]

CCON(Cc1ccc(-c2noc(C(F)(F)F)n2)cc1)C(C)=O [Compound 1.631, N-ethoxy-N-[[4-[5-(trifluoromethyl)-1,2,4-oxadiazol-3-yl]phenyl]methyl]-acetamide]
≥ 80%: pest or weed control at 200 ppm [1] | pest or weed control at 200 ppm (Phakopsora Pachyrhizi) | pest or weed control at 200 ppm [2] | inhibition of growth at 20 ppm [3]

CCCN(Cc1ccc(-c2noc(C(F)(F)F)n2)cc1)C(=O)C(C)C [Compound 1.651, 2-methyl-N-propyl-N-[[4-[5-(trifluoromethyl)-1,2,4-oxadiazol-3-yl]phenyl]methyl]-propanamide]
≥ 80%: pest or weed control at 200 ppm [1] | pest or weed control at 200 ppm (Phakopsora Pachyrhizi) | pest or weed control at 200 ppm [2] | inhibition of growth at 20 ppm [3]

CCCN(Cc1ccc(-c2noc(C(F)(F)F)n2)cc1)C(=O)C1CC1(F)F (stereo not shown) [Compound 1.652, 2,2-difluoro-N-propyl-N-[[4-[5-(trifluoromethyl)-1,2,4-oxadiazol-3-yl]phenyl]methyl]-cyclopropane-carboxamide]
≥ 80%: pest or weed control at 200 ppm [1] | pest or weed control at 200 ppm (Phakopsora Pachyrhizi) | pest or weed control at 200 ppm [2] | inhibition of growth at 20 ppm [3]

CCCN(Cc1ccc(-c2noc(C(F)(F)F)n2)cc1)C(=O)C1CCOC1 (stereo not shown) [Compound 1.654, N-propyl-N-[[4-[5-(trifluoromethyl)-1,2,4-oxadiazol-3-yl]phenyl]methyl]-tetrahydrofuran-3-carboxamide]
≥ 80%: pest or weed control at 200 ppm [1] | pest or weed control at 200 ppm (Phakopsora Pachyrhizi) | pest or weed control at 200 ppm [2] | inhibition of growth at 20 ppm [3]

CCCN(Cc1ccc(-c2noc(C(F)(F)F)n2)cc1)C(=O)CCOC [Compound 1.655, 3-methoxy-N-propyl-N-[[4-[5-(trifluoromethyl)-1,2,4-oxadiazol-3-yl]phenyl]methyl]-propanamide]
≥ 80%: pest or weed control at 200 ppm [1] | pest or weed control at 200 ppm (Phakopsora Pachyrhizi) | pest or weed control at 200 ppm [2] | inhibition of growth at 20 ppm [3]

CCCN(Cc1ccc(-c2noc(C(F)(F)F)n2)cc1)C(=O)C1CCC1 [Compound 1.656, N-propyl-N-[[4-[5-(trifluoromethyl)-1,2,4-oxadiazol-3-yl]phenyl]methyl]-cyclobutane-carboxamide]
≥ 80%: pest or weed control at 200 ppm [1] | pest or weed control at 200 ppm (Phakopsora Pachyrhizi) | pest or weed control at 200 ppm [2] | inhibition of growth at 20 ppm [3]

CCCN(Cc1ccc(-c2noc(C(F)(F)F)n2)cc1)C(=O)C1(C)CC1 [Compound 1.658, 1-methyl-N-propyl-N-[[4-[5-(trifluoromethyl)-1,2,4-oxadiazol-3-yl]phenyl]methyl]-cyclopropane-carboxamide]
≥ 80%: pest or weed control at 200 ppm [1] | pest or weed control at 200 ppm (Phakopsora Pachyrhizi) | pest or weed control at 200 ppm [2] | inhibition of growth at 20 ppm [3]

CCCN(Cc1ccc(-c2noc(C(F)(F)F)n2)cc1)C(=O)C(C)CC (stereo not shown) [Compound 1.659, 2-methyl-N-propyl-N-[[4-[5-(trifluoromethyl)-1,2,4-oxadiazol-3-yl]phenyl]methyl]-butanamide]
≥ 80%: pest or weed control at 200 ppm [1] | pest or weed control at 200 ppm (Phakopsora Pachyrhizi) | pest or weed control at 200 ppm [2] | inhibition of growth at 20 ppm [3]

CCCN(Cc1ccc(-c2noc(C(F)(F)F)n2)cc1)C(=O)C1(C)COC1 [Compound 1.660, 3-methyl-N-propyl-N-[[4-[5-(trifluoromethyl)-1,2,4-oxadiazol-3-yl]phenyl]methyl]-oxetane-3-carboxamide]
≥ 80%: pest or weed control at 200 ppm [1] | pest or weed control at 200 ppm (Phakopsora Pachyrhizi) | pest or weed control at 200 ppm [2] | inhibition of growth at 20 ppm [3]

CCCN(Cc1ccc(-c2noc(C(F)(F)F)n2)cc1)C(=O)C(CC)COC (stereo not shown) [Compound 1.661, 2-(methoxymethyl)-N-propyl-N-[[4-[5-(trifluoromethyl)-1,2,4-oxadiazol-3-yl]phenyl]methyl]-butanamide]
≥ 80%: pest or weed control at 200 ppm [1] | pest or weed control at 200 ppm (Phakopsora Pachyrhizi) | pest or weed control at 200 ppm [2] | inhibition of growth at 20 ppm [3]

— patent publication US11180462B2, “Microbiocidal oxadiazole derivatives” (SYNGENTA PARTICIPATIONS AG, priority 2015, dated 2021)
